Test results taken from patent US7122523B2, “Methods for inhibiting tumor cell proliferation” (University of Southern California, priority 2001, dated 2006).

Columns and labels:
Assay type in all cases: cell-based
[1] = system: Human Primary Tumor Cells; assay: Clonigenic assay, Chi Square analysis of tumor-type specificity over all samples
Procedure: (§1) Primary and metastatic tumors obtained from the Department of Obstetrics and Gynecology Pathology Section and the Surgical Pathology Division of Los Angeles County/University of Southern California were minced into pieces less than 2 mm in diameter in the presence of RPMI-1640 (Gibco, Grand Island, NTY) containing 15% heat-inactivated fetal calf serum. Each gram of tumor tissue was treated with 10–20 mL of enzyme medium, consisting of Hanks' balanced salt solution with 0.03% DNAse (500 Kunitz units/mL; Sigma Chemical Co., St. Louis, Mo.) and 0.14% collagenase type I (Sigma). Tumor fragments were stirred for 90 minutes at 37° C. in the presence of 5% CO2. After enzymatic digestion, the free cells were decanted through 40-gauge mesh strainers and centrifuged at 200×g for 10 minutes. The supernatant was removed and viable cells were resuspended in RPMI 1640. The cell number was determined using a hematocytometer and 0.04% trypan blue dye. The cells were then centrifuged and the pellet resuspended in RPMI 1640 at 5×10^5 cells/mL.
(§2) Human cancer cells were obtained from operative specimens provided by the Division of Gynecologic Oncology, Department of Obstetrics and Gynecology, or the Department of Surgical Pathology of Los Angeles County/University of Southern California School of Medicine. Tumor cells were maintained in vitro in RPMI 1640 medium supplemented with 15% heat-inactivated fetal calf serum, 100 μg/mL streptomycin, fungizone 25 μg/mL, and 100 μ/mL penicillin.
(§3) Cells were cultured on an underlayer of 0.5% agarose (Bethesda Research Labs, Bethesda, Md.) prepared from a 3% stock of agarose with added penicillin (100 units/mL), streptomycin (100 μg/mL), and fungizone (1.25 μg/mL) (GIBCO) as per a modification of an established procedure. The cloning efficiency of this assay varied depending upon the source of the tissue. One milliliter of this 0.5% agarose mixture was added to each 16×16-mm well of a 24-well plate and the plates were refrigerated for 10 minutes at 4° C. Cells were suspended in 0.6% agarose in RPMI-1640 supplemented with antibiotics and 15% fetal calf serum. One aliquot (0.5 mL) of cell suspension was added to each underlaver at a final concentration of 5×10^4 cells/well, and the plates were refrigerated 10 minutes at 4° C.
(§4) After a 72-hour incubation at 37° C., 5 μCi of tritiated thymidine (specific activity 18.2 Ci/mmol; New England Nuclear, Boston, Mass.) was layered over each well, and the plates were returned to the incubator for an additional 24 hours, incorporation of thymidine was terminated by transferring the agarose layers to 10-mL glass centrifuge tubes (Kimble, Division of Owens, Ill.) and boiling the tubes for 15 minutes in a water bath. The volume was brought to 8 mL, the tubes were centrifuged, and the pellets were washed with phosphate-buffered saline and then dissolved in 3 mL of 0.85 N KOH for 1 hour at 80° C. The tubes were cooled on ice and the hydrolysates were precipitated by adding 30 μL of 1% human serum albumin (Sigma) and 2.4 mL of ice-cold trichloroacetic acid. After overnight storage at 4° C., precipitates were collected by centrifugation. Pellets were washed with 5% trichloroacetic acid, dissolved in 0.3 mL of 0.075 N KOH, and transferred to scintillation vials to which 5 mL of Liquiscint (National Diagnostics, Somerville, N.J.) were added. Radioactivity per vial was measured in a Nuclear-Chicago liquid scintillation counter.

[2] = system: Colon adenocarcinoma; assay: Human tumor cell clonigenic assay (tritiated thymidine incorporation); details: Sample 25, Colon adenocarcinoma
Procedure: as §1, §2, §3, §4

[3] = system: Uterine Carcinosarcoma; assay: as above; details: Sample 17, Uterine Carcinosarcoma; AII(1–7) 0.1 ng/ml–10 μg/ml
Procedure: as §1, §2, §3, §4

[4] = system: Metastatic, recurrent moderately to poorly differentiated colonic adenocarcinoma; assay: as above; details: Sample 34, Metastatic, AII(1–7) 0.1 ng/ml–10 μg/ml
Procedure: as §1, §2, §3, §4

[5] = system: Breast adenocarcinoma; assay: as above; details: for Effect of AII(1–7) on proliferation: AII(1–7) 0.1 ng/ml–10 μg/ml; for IC50 (ng/ml) of AII(1–7): proliferation
Procedure: as §1, §2, §3, §4

[6] = system: Ovarian adenocarcinoma; assay: as above; details: for Effect of AII(1–7) on proliferation: AII(1–7) 0.1 ng/ml–10 μg/ml; for IC50 (ng/ml) of AII(1–7): proliferation
Procedure: as §1, §2, §3, §4

[7] = system: Invasive, moderately differentiated adenocarcinoma of colon; assay: as above; details: Sample 29, Invasive, AII(1–7) 0.1 ng/ml–10 μg/ml
Procedure: as §1, §2, §3, §4

[8] = system: Ovarian Cancer-High Grade Clear Cell Carcinoma; assay: as above; details: Sample 16, Ovarian Cancer-High Grade Clear Cell Carcinoma; AII(1–7) 0.1 ng/ml–10 μg/ml
Procedure: as §1, §2, §3, §4

[9] = system: Colonic adenocarcinoma, Gr 3–4, moderately to poorly differentiated; assay: as above; details: Sample 36, Colonic adenocarcinoma
Procedure: as §1, §2, §3, §4

[10] = system: Recurrent moderately differentiated colonic adenocarcinoma; assay: as above; details: Sample 19, Recurrent moderately differentiated colonic adenocarcinoma; AII(1–7) 0.1 ng/ml–10 μg/ml
Procedure: as §1, §2, §3, §4

[11] = system: Endometrial adenocarcinoma; assay: as above; details: for Effect of AII(1–7) on proliferation: AII(1–7) 0.1 ng/ml–10 μg/ml; for IC50 (ng/ml) of AII(1–7): proliferation
Procedure: as §1, §2, §3, §4

[12] = Sample 7, Breast adenocarcinoma
[13] = Sample 10, Breast adenocarcinoma
[14] = Sample 20, Breast adenocarcinoma
[15] = Sample 21, Breast adenocarcinoma
[16] = Sample 24, Breast adenocarcinoma
[17] = Sample 28, Breast adenocarcinoma
[18] = Sample 27, Ovarian adenocarcinoma
[19] = Sample 32, Ovarian adenocarcinoma
[20] = Sample 4, Endometrial adenocarcinoma
[21] = Sample 8, Endometrial adenocarcinoma
[22] = Sample 11, Endometrial adenocarcinoma
[23] = Sample 18, Endometrial adenocarcinoma
[24] = Sample 22, Endometrial adenocarcinoma
[25] = Sample 23, Endometrial adenocarcinoma

Question: What does the source list for `CC[C@H](C)[C@H](NC(=O)[C@H](Cc1ccc(O)cc1)NC(=O)[C@@H](NC(=O)[C@H](CCCNC(=N)N)NC(=O)[C@@H](N)CC(=O)O)C(C)C)C(=O)N[C@@H](Cc1c[nH]cn1)C(=O)N1CCC[C@H]1C(=O)O` [AII(1–7), Asp-Arg-Val-Tyr-Ile-His-Pro]?
Answer: tumors affected (proliferation decreased) ([1]; All adenocarcinoma: 14 decreased, 8 not affected): 63.6%; tumors affected (proliferation decreased) ([1]; Breast infiltrating ductal adenocarcinoma: 4 decreased, 2 not affected): 66.7%; tumors affected (proliferation decreased) ([1]; Uterine adenocarcinoma and breast infiltrating ductal adenocarcinoma: 9 decreased, 4 not affected): 69.2%; tumors affected (proliferation decreased) ([1]; Uterine adenocarcinoma: 5 decreased, 2 not affected): 71.4%; tumors with decreased proliferation ([1]; Uterine, ovarian and breast adenocarcinomas: 11 decreased, 5 not affected): 68.8%; tumors affected (proliferation decreased) ([1]; remaining tumors not adenocarcinoma: 2 decreased, 10 not affected): 16.7%; tumors affected (proliferation decreased) ([1]; remaining tumors not of breast infiltrating ductal adenocarcinoma origin: 12 decreased, 16 not affected): 42%; tumors affected (proliferation decreased) ([1]; remaining tumors not of uterine adenocarcinoma origin: 11 decreased, 16 not affected): 40.7%; tumors affected (proliferation decreased) ([1]; remaining tumors not of uterine or breast adenocarcinoma origin: 7 decreased, 14 not affected): 33.3%; tumors with decreased proliferation ([1]; remaining tumors not of uterine, ovarian or breast adenocarcinoma origin: 5 decreased, 13 not affected): 27.8%; Effect of AII(1–7) on proliferation ([2]; AII(1–7) 0.1 ng/ml–10 μg/ml): Decreased; IC50 (ng/ml) of AII(1–7) ([2]; proliferation): 4.75 ng/mL; Effect of AII(1–7) on proliferation [3]: No Effect; Effect of AII(1–7) on proliferation [4]: No Effect; Effect of AII(1–7) on proliferation [5, 12]: Decreased; IC50 (ng/ml) of AII(1–7) [5, 12]: 2.73 ng/mL; Effect of AII(1–7) on proliferation [5, 13]: No Effect; IC50 (ng/ml) of AII(1–7) [5, 13]: No Effect; Effect of AII(1–7) on proliferation [5, 14]: Decreased; IC50 (ng/ml) of AII(1–7) [5, 14]: 0.3 ng/mL; Effect of AII(1–7) on proliferation [5, 15]: No Effect; IC50 (ng/ml) of AII(1–7) [5, 15]: No Effect; Effect of AII(1–7) on proliferation [5, 16]: Decreased; IC50 (ng/ml) of AII(1–7) [5, 16]: 4.25 ng/mL; Effect of AII(1–7) on proliferation [5, 17]: Decreased; IC50 (ng/ml) of AII(1–7) [5, 17]: 2.97 ng/mL; Effect of AII(1–7) on proliferation [6, 18]: Decreased; IC50 (ng/ml) of AII(1–7) [6, 18]: 3.6 ng/mL; Effect of AII(1–7) on proliferation [6, 19]: Decreased; IC50 (ng/ml) of AII(1–7) [6, 19]: 3.4 ng/mL; Effect of AII(1–7) on proliferation ([6]; Sample 33, Ovarian adenocarcinoma): No Effect; Effect of AII(1–7) on proliferation [7]: No Effect; Effect of AII(1–7) on proliferation [8]: No Effect; Effect of AII(1–7) on proliferation ([9]; AII(1–7) 0.1 ng/ml–10 μg/ml): Decreased; IC50 (ng/ml) of AII(1–7) ([9]; proliferation): 2.55 ng/mL; Effect of AII(1–7) on proliferation [10]: No Effect; Effect of AII(1–7) on proliferation [11, 20]: Decreased; IC50 (ng/ml) of AII(1–7) [11, 20]: 1.0 ng/mL; Effect of AII(1–7) on proliferation [11, 21]: Decreased; IC50 (ng/ml) of AII(1–7) [11, 21]: 1.0 ng/mL; Effect of AII(1–7) on proliferation ([11]; Sample 9, Endometrial adenocarcinoma): Decreased; Effect of AII(1–7) on proliferation [11, 22]: No Effect; IC50 (ng/ml) of AII(1–7) [11, 22]: No Effect; Effect of AII(1–7) on proliferation [11, 23]: No Effect; IC50 (ng/ml) of AII(1–7) [11, 23]: No Effect; Effect of AII(1–7) on proliferation [11, 24]: Decreased; IC50 (ng/ml) of AII(1–7) [11, 24]: 0.1 ng/mL; Effect of AII(1–7) on proliferation [11, 25]: Decreased; IC50 (ng/ml) of AII(1–7) [11, 25]: 4.0 ng/mL
